From patent publication US20200236933A1, “USE OF A NON-IONIC SURFACTANT WHICH IS A POLYOL DERIVATIVE AS A PLANT GROWTH STIMULATING AGENT OR AS AN ADJUVANT” (priority 2017, published 2020)

Assays:
maize seeds = assay: Germination of maize seeds after immersion treatment (Example 2); format: in vivo; conditions: maize seeds immersed 1 h in 0.75% solution
Protocol: The seeds are next dried in a heating tunnel at 45° C. for one hour. Four batch repetitions of 16 seeds are deposited on Petri dishes containing a medium composed of 2% Agar Agar and 98% water.
The Petri dishes are kept at ambient temperature and in darkness. Each day the number of seeds that have germinated (having a radicle) is counted.

[1] = system: flat-leaf parsley variety NOVAS; assay: Root growth, assays in fields; format: in vivo, Petroselinum crispum var. neapolitanum; conditions: seeds immersed 1 h in 2.5% solution; 12 weeks after sowing
Protocol: In order to test the effect of the invention in conditions of crops in fields, the flat-leaf parsley variety NOVAS (Petroselinum crispum var. neapolitanum) is used.
(§1) The seeds are next dried in a heating tunnel at 45° C. for 1 h.
The seeds are mechanically sown (seeder) on strips of four rows each one beside the other to limit as much as possible the variations in soil quality, insulation and temperature. 12 weeks after sowing, 25 parsley plants were taken in order to measure several parameters of the roots: their weight, their length, and their diameter.

strawberry leaves = assay: Spreading of an aqueous solution on a leaf; format: in vivo; conditions: 0.75% solution sprayed on strawberry leaves
Protocol: Strawberry plants in pots are grown in a climate-controlled chamber in the following conditions: 23° C. and a photoperiod of 16 h/8 h.

parsley leaves = assay: Calcium content of the leaves; format: in vivo; conditions: 3% solution, watering every three days and spraying twice daily, seven days
Excerpt: After seven days of treatment, the leaves are harvested and analyzed to determine their calcium content.

parsley plants = assay: Protein content of parsley; format: in vivo; conditions: 40 ml of 0.75% solution every three days, 23 days
Protocol: Each batch consists of four pots. After 23 days of treatment the leaves are cut and an analysis of the amount of protein is carried out.

[2] = system: flat-leaf parsley variety NOVAS; assay: Vertical anchoring of the root, assays in fields; format: in vivo; conditions: seeds immersed 1 h in 2.5% solution; 12 weeks after sowing
Protocol: In order to test the effect of the invention in conditions of crops in the field, the flat-leaf parsley variety NOVAS is used.
as §1
The seeds are mechanically sown (seeder) on strips of four rows each one beside the other to limit as much as possible the variations in soil quality, insulation and temperature.
12 weeks after sowing, 25 parsley plants were harvested in order to observe root morphology.

rape leaf = assay: Penetration of a colored aqueous solution through the cuticle; conditions: 2.5% solution, 2 h on rape leaf then wiped
Protocol: Rape, a plant known for having a thick cuticle, was chosen in order to test the effectiveness of the invention as a penetrating agent.
A colorant in aqueous solution was deposited on a rape leaf, then left for 2 h and then wiped.

[3] = Formation of foam on preparing the mixture; format: physicochemical; conditions: 1% with 1% Cocamidopropyl betaine
Protocol: The two solutions were next stirred in equivalent manner, the photographs being taken before, immediately after stirring and 1 h after stirring.

[4] = Homogenization of the mixture; format: physicochemical; conditions: 1% with 2% glycerin colored blue
Excerpt: The mixtures were next stirred in equivalent manner. Photographs are taken after stirring.

[5] = system: detached leaves of Buddleja davidii; assay: Persistence of the mixture at the foliar surface; conditions: 1% with 0.1% colorant; rinses with water
Protocol: The effect of the invention on the persistence of the mixture was evaluated after spraying a solution colored blue on detached leaves of Buddleja davidii.
After spraying, the leaves are left at ambient temperature until the sprayed solution has evaporated.
Next, several operations of rinsing the leaves with water are carried out. The rinse water is collected after each rinse and photographs are taken to observe and compare the coloration of the rinse waters. An absorbance measurement at 630 nm is also carried out by spectrophotometry.

Aspergillus niger = assay: Fungicide effect by antibiogram type method; format: cell-based
Excerpt: In order to evaluate any impact of the sugar esters used according to the invention on microorganisms, the fungicide effect was searched for by an antibiogram type method. The method consists of: • spreading a solution contaminated with the mold Aspergillus niger on the surface of a Petri dish containing glucose gel growth medium with chloramphenicol. • arrange 4 sterile antibiogram disks of 6 mm diameter per Petri dish. • inoculate with 3 drops (0.071 g) of solution to test or control solution per disk. The dishes are next placed in the incubator at 25° C. for 5 days. Measurement of the inhibitory diameter is carried out every day.

Septoria leaf spot = assay: Reduction of phytosanitary products on wheat; format: in vivo, soft winter wheat (GARCIA variety); conditions: 25% of recommended dose (0.15 L/ha Priaxor + 0.15 L/ha Reimer Pro) plus 3 L/ha sucrose stearate; start of coming into ear
Protocol: Assays in a climate-controlled chamber were carried out on soft winter wheat (GARCIA variety, Arvalis). The wheat was sowed in containers of 1 meter by 1 meter. […] Priaxor® comprises two active ingredients: fluxapyroxad (belonging to the SDHI family) and pyraclostrobin (belonging to the strobilurin family) and Reimer® Pro comprises the active ingredient metconazole (belonging to the triazole family).
The containers were then taken out of the climate-controlled chamber and disposed near a field having more than 50% of wheat plants diseased with Septoria leaf spot. After 1 day, the containers were placed back in the climate-controlled chamber under controlled conditions.

Helminthosphaeria = assay: Reduction of phytosanitary products on maize; format: in vivo, maize (P7043, Pioneer); conditions: 25% of recommended dose (0.25 L/ha Amistar + 0.6 L/ha Cicero) plus 3 L/ha sucrose stearate; 12-14 leaf stage
Protocol: Assays in a climate-controlled chamber were carried out on maize ([…], Pioneer). The maize was sowed in containers of 1 meter by 1 meter. […] […]® comprises the active ingredient: azoxystrobin (belonging to the strobilurin family), and Cicero® comprises two active ingredients: chlorothalonil (belonging to the chloronitrile family), and flutriafol (belonging to the triazole family). […] The containers were then taken out of the climate-controlled chamber and disposed near a field having more than 50% of maize plants diseased with Helminthosphaeria. After 1 day, the containers were placed back in the climate-controlled chamber under controlled conditions.

**Q.** For sucrose stearate, which “increase of the germination kinetics on average” value (maize seeds) is on record?
**A.** 30%

**Q.** What about the “germinated seeds, treated batch compared with the control batch” value (maize seeds; after 2 days) of the same substance?
**A.** 10 times

**Q.** What about the “diameter of the taproot, on average greater than the control” value [1] of the same substance?
**A.** 30%

**Q.** What about the “roots with a length of more than 10 cm” value [1] of the same substance?
**A.** 74%

**Q.** And the “weight of the taproot, on average greater than the control” value [1]?
**A.** 70%

**Q.** And the “distribution of the solution on the leaf (spreading of the drops)” value (strawberry leaves)?
**A.** distributed evenly over the leaf

**Q.** What about the “passage of the solution onto the lower face compared with the control batch” value (strawberry leaves) of the same substance?
**A.** much greater passage of the solution onto the lower face

**Q.** What about the “reduction in the level of calcium in the leaves” value (parsley leaves) of the same substance?
**A.** 17%

**Q.** What about the “increase in the protein amount compared with the control batch” value (parsley plants) of the same substance?
**A.** 56%

**Q.** What about the root morphology [2] of the same substance?
**A.** root elongation, coupled with vertical anchorage of the roots

**Q.** What about the “penetration of the colorant through the cuticle” value (rape leaf) of the same substance?
**A.** enables the colorant to color the leaf and thus to penetrate through the cuticle

**Q.** What about the “reduction of the volume of foam immediately after stirring” value [3] of the same substance?
**A.** 30%

**Q.** What about the “homogenization of the mixture” value [4] of the same substance?
**A.** better homogenization of the mixture

**Q.** And the “persistence of the mixture on rinsing” value [5]?
**A.** still present even after the 4th rinse

**Q.** What about the Inhibitory diameter (Aspergillus niger; 0.1% solution, D1) of the same substance?
**A.** 0 mm

**Q.** What about the Inhibitory diameter (Aspergillus niger; 0.1% solution, D2) of the same substance?
**A.** 0 mm

**Q.** What about the Inhibitory diameter (Aspergillus niger; 0.1% solution, D3) of the same substance?
**A.** 0 mm

**Q.** And the Inhibitory diameter (Aspergillus niger; 0.1% solution, D4)?
**A.** 0 mm

**Q.** What about the Inhibitory diameter (Aspergillus niger; 0.1% solution, D5) of the same substance?
**A.** 0 mm

**Q.** And the Inhibitory diameter (Aspergillus niger; 1% solution, D1)?
**A.** 0 mm

**Q.** And the Inhibitory diameter (Aspergillus niger; 1% solution, D2)?
**A.** 0 mm

**Q.** And the Inhibitory diameter (Aspergillus niger; 1% solution, D3)?
**A.** 0 mm

**Q.** And the Inhibitory diameter (Aspergillus niger; 1% solution, D4)?
**A.** 0 mm

**Q.** What about the Inhibitory diameter (Aspergillus niger; 1% solution, D5) of the same substance?
**A.** 0 mm

**Q.** What about the Inhibitory diameter (Aspergillus niger; 3% solution, D1) of the same substance?
**A.** 0 mm

**Q.** What about the Inhibitory diameter (Aspergillus niger; 3% solution, D2) of the same substance?
**A.** 0 mm

**Q.** And the Inhibitory diameter (Aspergillus niger; 3% solution, D3)?
**A.** 0 mm

**Q.** And the Inhibitory diameter (Aspergillus niger; 3% solution, D4)?
**A.** 0 mm

**Q.** What about the Inhibitory diameter (Aspergillus niger; 3% solution, D5) of the same substance?
**A.** 0 mm

**Q.** What about the Inhibitory diameter (Aspergillus niger; 10% solution, D1) of the same substance?
**A.** 0 mm

**Q.** And the Inhibitory diameter (Aspergillus niger; 10% solution, D2)?
**A.** 0 mm

**Q.** What about the Inhibitory diameter (Aspergillus niger; 10% solution, D3) of the same substance?
**A.** 0 mm

**Q.** What about the Inhibitory diameter (Aspergillus niger; 10% solution, D4) of the same substance?
**A.** 0 mm

**Q.** What about the Inhibitory diameter (Aspergillus niger; 10% solution, D5) of the same substance?
**A.** 0 mm

**Q.** What about the fungicide effect (Aspergillus niger; whatever the concentrations tested (0.1-10%)) of the same substance?
**A.** no fungicide effect

**Q.** What about the “plants diseased with Septoria leaf spot” value (Septoria leaf spot) of the same substance?
**A.** 20%

**Q.** What about the “plants presenting Helminthosphaeria spots” value (Helminthosphaeria) of the same substance?
**A.** less than 10%
